{
  "source": "patent US20060147391A1",
  "about": "“Composition for enhancing oral health” (priority 2002, published 2006)",
  "origin": "cited, not measured here",
  "system": "oral microorganisms (intraoral bacteria such as Streptococcus mutans, Streptococcus sobrinus and Porphyromonas gingivalis)",
  "details": "reported result in vitro (Korean publications, WO 00/67711)",
  "data": [
    {"molecule": "CC(C)=CCC[C@@H](C)c1ccc(C)c(O)c1", "note": "[Xanthorrhizol]", "values": [
      {"measurement": "antibacterial activity against oral microorganisms", "result": "excellent antibacterial activity"}
    ]}
  ]
}
